ChEMBL document CHEMBL1201862, “PubChem BioAssay data set” (2004)
The source made the active and inactive calls.

Assays:
[1] = molecular target: T1, Kappa-type opioid receptor (Homo sapiens, UniProt P41145); test: SAR analysis of small molecule agonists of the kappa opioid receptor via a luminescent beta-arrestin assay. [Related pubchem assays (depositor defined):AID1777, AID1786, AID1966, AID2133, AID2136, AID2348, AID2352, AID2357, AID2359, AID2370, AID2420, AID2478, AID2491, AID2492, AID2493, AID2497, AID2498, AID2500, AID449737, AID488822, AID488842]; assay type: functional
Mu-type opioid receptor [2] = molecular target: T2, Mu-type opioid receptor (Homo sapiens, UniProt P35372); test: MOR agonists by imaging, SAR follow-up, image-based (AID 2352); assay type: functional
[3] = molecular target: T3, Delta-type opioid receptor (Homo sapiens, UniProt P41143); test: DOR agonists, SAR follow-up, image-based (AID 2370); assay type: functional
[4] = molecular target: T1, Kappa-type opioid receptor; test: KOR antagonists by imaging, SAR follow-up, image-based (AID 2348); assay type: functional
Mu-type opioid receptor [5] = molecular target: T2, Mu-type opioid receptor; test: MOR antagonists, SAR follow-up, image-based (AID 2420); assay type: functional;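 note: compounds added before stimulation of receptor with agonist DAMGO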
[6] = molecular target: T1, Kappa-type opioid receptor; test: KOR agonist analogs, imaging readout, SAR follow-up, image-based (AID 2359); assay type: functional
[7] = molecular target: T3, Delta-type opioid receptor; test: DOR antagonists, SAR follow-up, image-based (AID 2357); assay type: functional
[8] = molecular target: T1, Kappa-type opioid receptor; test: SAR analysis of small molecule agonists of the kappa opioid receptor via a luminescent beta-arrestin assay - Set 3. [Related pubchem assays (depositor defined):AID1777, AID1785, AID1786, AID1966, AID2133, AID2136, AID2284, AID2500]; assay type: functional
[9] = HEp-2 cell cytotoxicity, dose response, cytotoxicity control for RSV inhibitor project, HTS (AID 2410); assay type: functional; conditions: human respiratory syncytial virus
Large T antigen = Large T antigen (Simian virus 40, UniProt P03070); assay type: functional, Betapolyomavirus macacae;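 note: Confirmatory-stage PubChem screen for compounds that inhibit SV40 T antigen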
[10] = molecular target: Intestinal-type alkaline phosphatase (Mus musculus, UniProt P24822); test: PubChem AID 488874; assay type: functional
[11] = molecular target: T4, Intestinal-type alkaline phosphatase (Homo sapiens, UniProt P09923); test: human IAP inhibitors, dose response, biochemical, luminescent, uHTS hits, set 2 (AID 488793); assay type: functional
[12] = molecular target: T4, Intestinal-type alkaline phosphatase; test: Dose Response confirmation of uHTS hits from a small molecule inhibitors of human intestinal alkaline phosphatase via a luminescent assay. [Related pubchem assays (depositor defined):AID2544, AID2574]; assay type: functional
[13] = molecular target: FAD-linked sulfhydryl oxidase ALR (Homo sapiens, UniProt P55789); test: inhibitors of human ALR sulfhydryl oxidase, dose response, biochemical, H2O2 detection, luminescence, cherry-pick (AID 493248)
[14] = molecular target: T5, Alkaline phosphatase, tissue-nonspecific isozyme (Homo sapiens, UniProt P05186); test: inhibition of tissue-nonspecific alkaline phosphatase – biochemical, dose response (AID 488882); assay type: functional
T5 sequence (P05186 whole entry): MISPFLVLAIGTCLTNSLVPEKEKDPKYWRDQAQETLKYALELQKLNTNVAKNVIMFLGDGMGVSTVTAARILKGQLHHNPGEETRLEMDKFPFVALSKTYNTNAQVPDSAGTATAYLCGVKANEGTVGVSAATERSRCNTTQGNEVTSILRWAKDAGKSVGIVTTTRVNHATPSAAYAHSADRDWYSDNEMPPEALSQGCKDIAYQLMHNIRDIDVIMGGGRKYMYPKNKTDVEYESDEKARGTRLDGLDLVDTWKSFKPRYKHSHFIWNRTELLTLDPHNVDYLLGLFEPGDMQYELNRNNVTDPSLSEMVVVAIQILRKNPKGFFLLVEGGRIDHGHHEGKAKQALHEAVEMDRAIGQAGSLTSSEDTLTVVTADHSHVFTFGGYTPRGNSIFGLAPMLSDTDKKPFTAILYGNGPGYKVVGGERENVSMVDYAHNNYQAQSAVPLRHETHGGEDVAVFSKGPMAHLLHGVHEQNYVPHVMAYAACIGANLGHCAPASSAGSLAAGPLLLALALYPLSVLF

Vero = Vero cell cytotoxicity, cytotoxicity control for flavivirus capping enzyme inhibitors (AID 588742); assay type: functional; conditions: Chlorocebus sabaeus
Albumin = Albumin (Bos taurus, UniProt P02769); test: Counterscreen for inhibitors of T-cell receptor (TCR)-CD3 interaction: Fluorescence-based biochemical high throughput dose response assay to identify inhibitors of T-cell receptor (TCR)-CD3 interaction using a TAMRA-labeled BSA probe.; assay type: functional
Caspase-6 = molecular target: T6, Caspase-6 (Homo sapiens, UniProt P55212); test: human caspase-6 inhibitors, dose response, biochemical, VEID-R110 fluorescence, cherry-pick (AID 720632)
T6 sequence (P55212 whole entry): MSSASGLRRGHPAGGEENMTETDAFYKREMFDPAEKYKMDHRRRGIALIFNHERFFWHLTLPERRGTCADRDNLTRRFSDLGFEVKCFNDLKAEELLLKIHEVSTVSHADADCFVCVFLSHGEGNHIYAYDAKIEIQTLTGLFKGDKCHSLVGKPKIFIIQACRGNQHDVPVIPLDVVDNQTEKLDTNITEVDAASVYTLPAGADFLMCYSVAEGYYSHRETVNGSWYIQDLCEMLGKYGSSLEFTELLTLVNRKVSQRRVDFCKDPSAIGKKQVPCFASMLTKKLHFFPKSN

[15] = molecular target: T7, Histone-lysine N-methyltransferase NSD2 (Homo sapiens, UniProt O96028); assay type: biochemical
T7 sequence (O96028 whole entry): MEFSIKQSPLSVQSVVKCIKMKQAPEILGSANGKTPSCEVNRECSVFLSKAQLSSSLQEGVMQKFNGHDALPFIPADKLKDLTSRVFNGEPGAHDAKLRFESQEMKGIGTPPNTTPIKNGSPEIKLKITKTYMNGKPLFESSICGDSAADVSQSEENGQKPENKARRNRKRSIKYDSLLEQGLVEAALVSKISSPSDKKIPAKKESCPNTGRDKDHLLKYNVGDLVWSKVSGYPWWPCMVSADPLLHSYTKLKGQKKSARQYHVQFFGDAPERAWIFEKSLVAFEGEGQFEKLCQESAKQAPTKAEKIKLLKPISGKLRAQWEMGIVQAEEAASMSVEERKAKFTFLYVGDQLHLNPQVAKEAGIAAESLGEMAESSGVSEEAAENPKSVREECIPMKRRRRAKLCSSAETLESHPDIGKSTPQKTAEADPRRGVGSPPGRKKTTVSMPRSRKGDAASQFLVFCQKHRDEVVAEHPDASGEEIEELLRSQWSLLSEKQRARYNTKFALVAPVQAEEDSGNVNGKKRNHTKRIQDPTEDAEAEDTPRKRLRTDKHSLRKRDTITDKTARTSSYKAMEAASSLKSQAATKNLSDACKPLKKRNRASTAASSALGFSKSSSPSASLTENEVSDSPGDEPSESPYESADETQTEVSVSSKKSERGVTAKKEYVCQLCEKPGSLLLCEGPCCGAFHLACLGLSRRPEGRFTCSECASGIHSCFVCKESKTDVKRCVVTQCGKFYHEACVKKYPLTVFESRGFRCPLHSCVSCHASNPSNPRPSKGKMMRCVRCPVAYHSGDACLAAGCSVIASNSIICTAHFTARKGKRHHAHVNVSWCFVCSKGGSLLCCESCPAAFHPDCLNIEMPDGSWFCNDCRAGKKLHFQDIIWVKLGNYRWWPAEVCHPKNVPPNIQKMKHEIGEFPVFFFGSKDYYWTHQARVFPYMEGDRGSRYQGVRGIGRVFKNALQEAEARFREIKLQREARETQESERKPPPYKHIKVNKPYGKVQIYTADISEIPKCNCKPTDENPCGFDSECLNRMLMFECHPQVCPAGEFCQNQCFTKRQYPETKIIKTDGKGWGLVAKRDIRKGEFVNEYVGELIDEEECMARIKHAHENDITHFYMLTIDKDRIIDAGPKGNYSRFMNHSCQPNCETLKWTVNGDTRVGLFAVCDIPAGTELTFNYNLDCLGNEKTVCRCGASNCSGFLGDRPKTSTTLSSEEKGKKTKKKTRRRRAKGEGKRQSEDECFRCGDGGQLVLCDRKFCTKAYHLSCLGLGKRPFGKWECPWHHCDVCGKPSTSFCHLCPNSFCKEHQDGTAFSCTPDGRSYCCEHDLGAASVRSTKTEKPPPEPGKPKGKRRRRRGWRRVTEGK

T1 sequence (P41145 whole entry): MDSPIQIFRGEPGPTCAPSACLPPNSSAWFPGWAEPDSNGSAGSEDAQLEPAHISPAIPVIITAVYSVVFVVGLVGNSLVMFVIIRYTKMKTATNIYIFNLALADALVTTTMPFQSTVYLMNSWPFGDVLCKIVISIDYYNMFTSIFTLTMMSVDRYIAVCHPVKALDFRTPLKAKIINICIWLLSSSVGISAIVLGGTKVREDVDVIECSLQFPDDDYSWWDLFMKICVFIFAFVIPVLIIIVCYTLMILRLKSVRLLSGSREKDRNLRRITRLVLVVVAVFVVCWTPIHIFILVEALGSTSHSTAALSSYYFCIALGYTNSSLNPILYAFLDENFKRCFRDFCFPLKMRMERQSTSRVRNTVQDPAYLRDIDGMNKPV
T4 sequence (P09923 whole entry): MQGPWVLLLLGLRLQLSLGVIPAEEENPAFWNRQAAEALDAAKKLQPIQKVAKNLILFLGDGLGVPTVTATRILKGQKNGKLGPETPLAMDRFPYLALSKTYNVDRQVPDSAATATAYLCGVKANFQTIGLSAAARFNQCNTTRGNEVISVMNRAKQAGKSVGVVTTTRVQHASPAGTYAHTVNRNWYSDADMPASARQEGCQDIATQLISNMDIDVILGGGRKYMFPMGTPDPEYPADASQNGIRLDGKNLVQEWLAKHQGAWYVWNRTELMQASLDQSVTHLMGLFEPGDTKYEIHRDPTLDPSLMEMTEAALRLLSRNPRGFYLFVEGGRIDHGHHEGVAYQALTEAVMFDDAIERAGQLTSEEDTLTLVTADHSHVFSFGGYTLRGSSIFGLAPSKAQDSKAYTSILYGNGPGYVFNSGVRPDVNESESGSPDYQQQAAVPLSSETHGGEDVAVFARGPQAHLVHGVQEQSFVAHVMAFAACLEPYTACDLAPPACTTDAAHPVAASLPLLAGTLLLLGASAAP
T3 sequence (P41143 whole entry): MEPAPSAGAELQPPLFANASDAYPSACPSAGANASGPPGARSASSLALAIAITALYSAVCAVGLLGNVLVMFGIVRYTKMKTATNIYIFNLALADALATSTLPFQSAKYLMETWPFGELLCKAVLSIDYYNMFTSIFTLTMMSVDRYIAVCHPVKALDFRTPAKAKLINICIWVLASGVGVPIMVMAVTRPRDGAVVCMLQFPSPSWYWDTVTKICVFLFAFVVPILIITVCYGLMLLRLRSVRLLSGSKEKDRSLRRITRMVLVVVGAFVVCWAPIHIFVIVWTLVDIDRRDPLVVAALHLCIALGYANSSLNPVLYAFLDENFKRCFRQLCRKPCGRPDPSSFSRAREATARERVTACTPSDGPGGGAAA
T2 sequence (P35372 whole entry): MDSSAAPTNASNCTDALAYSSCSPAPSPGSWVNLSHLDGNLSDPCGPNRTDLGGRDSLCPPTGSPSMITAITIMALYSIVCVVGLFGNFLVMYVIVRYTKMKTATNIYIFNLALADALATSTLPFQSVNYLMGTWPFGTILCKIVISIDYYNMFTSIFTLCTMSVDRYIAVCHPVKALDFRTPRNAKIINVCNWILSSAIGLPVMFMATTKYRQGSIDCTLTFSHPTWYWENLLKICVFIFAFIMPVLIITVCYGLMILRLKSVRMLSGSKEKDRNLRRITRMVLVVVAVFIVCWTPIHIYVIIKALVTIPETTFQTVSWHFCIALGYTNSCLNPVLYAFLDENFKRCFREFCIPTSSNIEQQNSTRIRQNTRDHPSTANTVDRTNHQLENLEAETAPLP
Sequence of Intestinal-type alkaline phosphatase (Mus musculus, UniProt P24822) (P24822 whole entry): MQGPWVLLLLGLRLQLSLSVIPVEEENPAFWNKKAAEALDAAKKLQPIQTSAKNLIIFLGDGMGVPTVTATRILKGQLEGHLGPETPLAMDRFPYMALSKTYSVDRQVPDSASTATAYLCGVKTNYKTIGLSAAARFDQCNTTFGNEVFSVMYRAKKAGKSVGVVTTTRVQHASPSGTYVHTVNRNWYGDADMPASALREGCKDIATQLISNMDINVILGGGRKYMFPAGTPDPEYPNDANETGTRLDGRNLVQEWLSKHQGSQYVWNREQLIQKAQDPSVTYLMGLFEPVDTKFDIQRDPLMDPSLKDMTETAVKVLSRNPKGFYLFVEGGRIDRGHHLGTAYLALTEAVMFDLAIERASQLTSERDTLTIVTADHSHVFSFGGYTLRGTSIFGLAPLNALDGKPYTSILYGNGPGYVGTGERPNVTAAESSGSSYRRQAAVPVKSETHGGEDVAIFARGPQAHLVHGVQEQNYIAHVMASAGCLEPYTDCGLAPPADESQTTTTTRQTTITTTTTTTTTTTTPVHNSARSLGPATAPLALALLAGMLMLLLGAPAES
Sequence of Large T antigen (P03070 whole entry): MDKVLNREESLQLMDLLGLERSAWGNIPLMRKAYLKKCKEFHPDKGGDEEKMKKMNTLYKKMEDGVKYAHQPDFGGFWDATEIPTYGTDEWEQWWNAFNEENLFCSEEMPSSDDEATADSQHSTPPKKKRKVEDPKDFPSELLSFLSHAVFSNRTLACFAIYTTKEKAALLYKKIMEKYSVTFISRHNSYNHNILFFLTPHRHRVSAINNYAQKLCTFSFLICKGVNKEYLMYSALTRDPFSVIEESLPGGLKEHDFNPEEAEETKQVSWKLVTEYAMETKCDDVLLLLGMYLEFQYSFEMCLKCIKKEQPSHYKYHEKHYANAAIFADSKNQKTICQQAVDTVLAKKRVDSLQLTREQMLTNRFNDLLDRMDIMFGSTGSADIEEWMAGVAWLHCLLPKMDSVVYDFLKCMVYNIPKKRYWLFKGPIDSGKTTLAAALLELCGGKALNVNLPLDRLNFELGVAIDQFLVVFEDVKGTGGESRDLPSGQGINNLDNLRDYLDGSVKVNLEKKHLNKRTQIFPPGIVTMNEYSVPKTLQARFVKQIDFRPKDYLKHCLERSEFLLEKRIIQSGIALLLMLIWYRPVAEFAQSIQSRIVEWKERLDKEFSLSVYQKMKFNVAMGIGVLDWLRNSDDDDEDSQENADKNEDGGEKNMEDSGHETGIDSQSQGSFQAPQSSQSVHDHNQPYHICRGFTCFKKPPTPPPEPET
Sequence of FAD-linked sulfhydryl oxidase ALR (P55789 whole entry): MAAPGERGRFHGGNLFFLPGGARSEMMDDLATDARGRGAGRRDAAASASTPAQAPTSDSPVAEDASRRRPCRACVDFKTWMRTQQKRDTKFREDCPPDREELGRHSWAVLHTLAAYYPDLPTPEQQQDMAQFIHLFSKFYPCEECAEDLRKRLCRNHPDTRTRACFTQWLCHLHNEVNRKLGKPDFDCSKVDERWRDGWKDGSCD
Sequence of Albumin (P02769 whole entry): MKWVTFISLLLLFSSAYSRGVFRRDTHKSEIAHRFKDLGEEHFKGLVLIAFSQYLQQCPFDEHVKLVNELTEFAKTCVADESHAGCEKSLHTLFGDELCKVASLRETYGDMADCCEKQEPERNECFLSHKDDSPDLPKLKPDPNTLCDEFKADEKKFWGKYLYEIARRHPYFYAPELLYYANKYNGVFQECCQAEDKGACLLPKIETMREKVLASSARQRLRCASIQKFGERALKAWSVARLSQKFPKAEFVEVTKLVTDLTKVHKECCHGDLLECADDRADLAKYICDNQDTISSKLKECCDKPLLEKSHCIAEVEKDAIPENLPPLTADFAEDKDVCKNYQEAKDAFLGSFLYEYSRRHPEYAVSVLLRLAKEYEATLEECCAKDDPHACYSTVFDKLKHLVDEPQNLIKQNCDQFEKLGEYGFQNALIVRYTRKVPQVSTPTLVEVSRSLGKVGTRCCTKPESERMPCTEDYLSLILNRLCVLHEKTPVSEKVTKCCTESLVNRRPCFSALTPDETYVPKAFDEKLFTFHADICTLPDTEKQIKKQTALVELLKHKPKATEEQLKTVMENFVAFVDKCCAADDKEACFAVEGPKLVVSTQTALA

O=C(c1ccccn1)N(Cc1ccco1)C1(C(=O)Nc2ccc(Br)cc2)CCCCC1
inactive: EC50 (Mu-type opioid receptor [2]) > 32 µM | EC50 [3] > 32 µM | IC50 [4] > 32 µM | IC50 (Mu-type opioid receptor [5]) > 32 µM | IC50 [7] > 32 µM
active: EC50 [1] 423 nM | EC50 [6] 98.3 nM

Clc1ccc(CSc2nnc(-c3ccncc3)n2Cc2ccco2)cc1Cl
inactive: EC50 [8] > 20 µM

O=C1Nc2ccccc2/C1=N/N=C/c1ccc(O)c(O)c1
inactive: IC50 (Albumin) > 94.1 µM
active: CC50 [9] 22.4 µM | IC50 (Large T antigen) 3.29 µM | IC50 [10] 4.79 µM | IC50 [11] 7.63 µM | IC50 [12] 7.95 µM | AC50 [13] 830 nM | IC50 [14] 3.29 µM | CC50 (Vero) > 40 µM | AC50 (Caspase-6) 226 nM | AC50 [15] 407 nM
